Experimental data published in patent US8871796B2, “Diaryl ether derivatives as notch sparing gamma secretase inhibitors” (Merck Sharp & Dohme Corp., priority 2009, dated 2014).
Read-outs that look alike come from different tables or passages of the source.

Assay: APP processing: AlphaLisa assay of secreted Aβ40 and Aβ42 from SP4CT cells
Assay type: cell-based
Conditions: Homo sapiens, SH-SY5Y cells expressing amyloid β protein (SP4CT cells)
Outline: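 Media from compound-treated SP4CT cells (SH-SY5Y expressing amyloid β protein) was assayed by AlphaLisa. Donor beads carried biotinylated 4G8 anti-Aβ antibody; acceptor beads carried G210 (Aβ40) or 12F4 (Aβ42) in separate plates, with luminescence proportional to peptide abundance.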

[1] = read-out: IC50, inhibition of production of Aβ40 peptide
[2] = read-out: IC50, inhibition of production of Aβ42 peptide

Row | SMILES | IC50 [1] [nM] | IC50 [2] [nM]
1 | CCn1nc(Oc2ccc(C(F)(F)F)cc2)c(Cl)c1-c1cccc(C(C)(C)NS(=O)(=O)CC(F)(F)F)c1 [Example 113, N-[2-(3-{4-chloro-1-ethyl-3-[4-(trifluoromethyl)phenoxy]-1H-pyrazol-5-yl}phenyl)propan-2-yl]-2,2,2-trifluoroethanesulfonamide] | < 200 | < 200
2 | CCn1nc(Oc2ccc(C(F)(F)F)cc2)c(Br)c1-c1cccc(C(C)(C)NS(=O)(=O)CC(F)(F)F)c1 [Example 114, N-[2-(3-{4-Bromo-1-ethyl-3-[4-(trifluoromethyl)phenoxy]-1H-pyrazol-5-yl}phenyl)propan-2-yl]-2,2,2-trifluoroethanesulfonamide] | < 200 | < 200
3 | CCn1nc(-c2cccc(C(C)(C)NS(=O)(=O)CC(F)(F)F)c2)c(Br)c1Oc1ccc(C(F)(F)F)cc1 [Example 115, N-[2-(3-{4-bromo-1-ethyl-5-[4-(trifluoromethyl)phenoxy]-1H-pyrazol-3-yl}phenyl)propan-2-yl]-2,2,2-trifluoroethanesulfonamide] | < 200 | < 200
4 | CCn1nc(-c2cccc(C(C)(C)NS(=O)(=O)CC(F)(F)F)c2)c(I)c1Oc1ccc(C(F)(F)F)cc1 [Example 116, N-[2-(3-{1-ethyl-4-iodo-5-[4-(trifluoromethyl)phenoxy]-1H-pyrazol-3-yl}phenyl)propan-2-yl]-2,2,2-trifluoroethanesulfonamide] | < 200 | < 200
5 | CCn1nc(-c2cccc(C(C)(C)NS(=O)(=O)CC(F)(F)F)c2)c(C#N)c1Oc1ccc(C(F)(F)F)cc1 [Example 117, N-[2-(3-{4-cyano-1-ethyl-5-[4-(trifluoromethyl)phenoxy]-1H-pyrazol-3-yl}phenyl)propan-2-yl]-2,2,2-trifluoroethanesulfonamide] | < 200 | < 200
6 | CCn1nc(-c2cccc(C(C)(C)NS(=O)(=O)CC(F)(F)F)c2)c(C=O)c1Oc1ccc(C(F)(F)F)cc1 [Example 118, N-[2-(3-{1-ethyl-4-formyl-5-[4-(trifluoromethyl)phenoxy]-1H-pyrazol-3-yl}phenyl)propan-2-yl]-2,2,2-trifluoroethanesulfonamide] | < 200 | < 200
7 | CCn1nc(-c2cccc(C(C)(C)NS(=O)(=O)CC(F)(F)F)c2)c(C#Cc2ccccc2)c1Oc1ccc(C(F)(F)F)cc1 [Example 119, N-[2-(3-{1-ethyl-4-(phenylethynyl)-5-[4-(trifluoromethyl)phenoxy]-1H-pyrazol-3-yl}phenyl)propan-2-yl]-2,2,2-trifluoroethanesulfonamide] | < 200 | < 200
8 | CCn1nc(Oc2ccc(C(F)(F)F)cc2)cc1-c1ccc2c(c1)CC(NS(=O)(=O)NCC(F)(F)F)C2 (centres unmarked) [Example 120, (N-[5-(1-Ethyl-3-(4-trifluoromethylphenoxy)-1H-pyrazol-5-yl)-2,3-dihydro-1H-inden-2-yl]-N′-(2,2,2-trifluoroethyl)sulfuric diamide)] | < 200 | < 200
9 | CCn1nc(-c2ccc3c(c2)CC(NS(=O)(=O)NCC(F)(F)F)C3)cc1Oc1ccc(C(F)(F)F)cc1 (centres unmarked) [Example 121] | < 200 | < 200
10 | CCn1nc(Oc2ccc(C(F)(F)F)cn2)cc1-c1ccc2c(c1)CC(NS(=O)(=O)NCC(F)(F)F)C2 (centres unmarked) [Example 122, N-[5-(1-ethyl-3-{[5-(trifluoromethyl)pyridin-2-yl]oxy}-1H-pyrazol-5-yl)-2,3-dihydro-1H-inden-2-yl]-N′-(2,2,2-trifluoroethyl)sulfamide] | < 200 | < 200
11 | CCCNS(=O)(=O)NC1Cc2ccc(-c3cc(Oc4ccc(C(F)(F)F)cc4)nn3CC)cc2C1 (centres unmarked) [Example 123, N-(5-{1-ethyl-3-[4-(trifluoromethyl)phenoxy]-1H-pyrazol-5-yl}-2,3-dihydro-1H-inden-2-yl)-N′-propylsulfamide] | < 200 | < 200
12 | CCn1nc(Oc2ccc(C(F)(F)F)cc2)cc1-c1ccc2c(c1)CC(NS(=O)(=O)NCC(C)C)C2 (centres unmarked) [Example 124, N-(5-{1-ethyl-3-[4-(trifluoromethyl)phenoxy]-1H-pyrazol-5-yl}-2,3-dihydro-1H-inden-2-yl)-N′-isobutylsulfamide] | < 200 | < 200
13 | CCn1nc(Oc2ccc(C(F)(F)F)cc2)cc1-c1ccc2c(c1)CC(NS(=O)(=O)NC1CCC1)C2 (centres unmarked) [Example 125, N-cyclobutyl-N′-(5-{1-ethyl-3-[4-(trifluoromethyl)phenoxy]-1H-pyrazol-5-yl}-2,3-dihydro-1H-inden-2-yl)sulfamide] | < 200 | < 200
14 | CCn1nc(-c2cncc(C3(NS(=O)(=O)CC(F)(F)F)COC3)c2)cc1Oc1ccc(C(F)(F)F)cc1 [Example 126, N-[3-(5-{1-ethyl-5-[4-(trifluoromethyl)phenoxy]-1H-pyrazol-3-yl}pyridine-3-yl)oxetan-3-yl]-2,2,2-trifluoroethanesulfonamide] | < 200 | < 200
15 | CCn1nc(-c2cncc(C3(NS(=O)(=O)NCC(F)(F)F)COC3)c2)cc1Oc1ccc(C(F)(F)F)cc1 [Example 127, N-[3-(5-{1-ethyl-5-[4-(trifluoromethyl)phenoxy]-1H-pyrazol-3-yl}pyridine-3-yl)oxetan-3-yl]-N′-(2,2,2-trifluoroethyl)sulfamide] | < 200 | < 200
16 | CCn1nc(-c2cccc(C3(NS(=O)(=O)CC(F)(F)F)COC3)c2)cc1Oc1ccc(C#N)cc1 [Example 128] | < 200 | < 200
17 | CCn1nc(-c2cccc(C3(NS(=O)(=O)NCC(F)(F)F)COC3)c2)cc1Oc1ccc(C#N)cc1 [Example 129, N-(3-{3-[5-(4-cyanophenoxy)-1-ethyl-1H-pyrazol-3-yl]phenyl}oxetane-3-yl)-N′-(2,2,2-trifluoroethyl)sulfamide] | < 200 | < 200
18 | CCn1nc(-c2cccc(C3(NS(=O)(=O)NC4CC(F)(F)C4)COC3)c2)cc1Oc1ccc(C#N)cc1 [Example 130, N-(3-{3-[5-(4-cyanophenoxy)-1-ethyl-1H-pyrazol-3-yl]phenyl}oxetane-3-yl)-N′-(3,3-difluorocyclobutyl)sulfamide] | < 200 | < 200
19 | CN(C)C(=O)Cn1nc(-c2cccc(C3(NS(=O)(=O)CC(F)(F)F)COC3)c2)cc1Oc1ccc(C(F)(F)F)cc1 [Example 131, 2-[5-(4-trifluoromethylphenoxy)-3-(3-{3-[(2,2,2-trifluoroethylsulfonyl)amino]oxetan-3-yl}phenyl)-1H-pyrazol-1-yl]-N,N-dimethylacetamide] | < 200 | < 200

Now from value to molecule:

Row | IC50 [1] [nM] | IC50 [2] [nM] | SMILES
20 | < 200 | < 200 | CNC(=O)Cn1nc(-c2cccc(C3(NS(=O)(=O)CC(F)(F)F)COC3)c2)cc1Oc1ccc(C(F)(F)F)cc1 [Example 132, 2-[5-(4-trifluoromethylphenoxy)-3-(3-{3-[(2,2,2-trifluoroethylsulfonyl)amino]oxetan-3-yl}phenyl)-1H-pyrazol-1-yl]-N-methylacetamide]
21 | < 200 | < 200 | O=C(Cn1nc(-c2cccc(C3(NS(=O)(=O)CC(F)(F)F)COC3)c2)cc1Oc1ccc(C(F)(F)F)cc1)N1CCOCC1 [Example 133, N-[3-(3-{5-(4-trifluoromethylphenoxy)-1-[2-oxo-2-(morpholin-4-yl)ethyl]-1H-pyrazol-3-yl}phenyl)oxetan-3-yl]- ,2,2,2-trifluoroethanesulfonamide]
22 | < 200 | < 200 | O=S(=O)(CC(F)(F)F)NC1(c2cccc(-c3cc(Oc4ccc(C(F)(F)F)cc4)n(Cc4cocn4)n3)c2)COC1 [Example 134, N-(3-{3-[5-(4-trifluoromethylphenoxy)-1-(1,3-oxazol-4-ylmethyl)-1H-pyrazol-3-yl]phenyl}oxetan-3-yl)-2,2,2-trifluoroethanesulfonamide]
23 | < 200 | < 200 | O=S(=O)(CC(F)(F)F)NC1(c2cccc(-c3cc(Oc4ccc(C(F)(F)F)cc4)nn3Cc3cocn3)c2)COC1 [Example 135, N-(3-{3-[3-(4-trifluoromethylphenoxy)-1-(1,3-oxazol-4-ylmethyl)-1H-pyrazol-5-yl]phenyl}oxetan-3-yl)-2,2,2-trifluoroethanesulfonamide]
24 | < 200 | < 200 | Cc1nnc(Cn2nc(-c3cccc(C4(NS(=O)(=O)CC(F)(F)F)COC4)c3)cc2Oc2ccc(C(F)(F)F)cc2)o1 [Example 136, N-(3-{3-[5-(4-trifluoromethylphenoxy)-1-(5-methyl-1,3,4-oxadiazol-2-ylmethyl)-1H-pyrazol-3-yl]phenyl}oxetan-3-yl)-2,2,2-trifluoroethanesulfonamide]
25 | < 200 | < 200 | Cc1cc(Cn2nc(-c3cccc(C4(NS(=O)(=O)CC(F)(F)F)COC4)c3)cc2Oc2ccc(C(F)(F)F)cc2)on1 [Example 137, N-(3-{3-[5-(4-trifluoromethylphenoxy)-1-(5-methyl-1,2-isoxazol-3-ylmethyl)-1H-pyrazol-3-yl]phenyl}oxetan-3-yl)-2,2,2-trifluoroethanesulfonamide]
26 | < 200 | < 200 | O=S(=O)(CC(F)(F)F)NC1(c2cccc(-c3cc(Oc4ccc(C(F)(F)F)cc4)n(CC4CCCO4)n3)c2)COC1 (centres unmarked) [Example 138, N-(3-{3-[5-(4-trifluoromethylphenoxy)-1-(tetrahydrofuran-2-ylmethyl)-1H-pyrazol-3-yl]phenyl}oxetan-3-yl)-2,2,2-trifluoroethanesulfonamide]
27 | < 200 | < 200 | O=S(=O)(CC(F)(F)F)NC1(c2cccc(-c3cc(Oc4ccc(C(F)(F)F)cc4)n(CC4CCOCC4)n3)c2)COC1 [Example 139, N-(3-{3-[5-(4-trifluoromethylphenoxy)-1-(tetrahydro-2H-pyran-4-ylmethyl)-1H-pyrazol-3-yl]phenyl}oxetan-3-yl)-2,2,2-trifluoroethanesulfonamide]
28 | < 200 | < 200 | O=S(=O)(CC(F)(F)F)NC1(c2cccc(-c3cc(Oc4ccc(C(F)(F)F)cc4)n(CC4CCCCO4)n3)c2)COC1 (centres unmarked) [Example 140]
